Columns and labels:
[1] = molecular target: Coagulation factor XI (Homo sapiens, UniProt P03951); assay: Inhibition Assay: Factor XIa determinations were made in 50 mM HEPES buffer at pH 7.4 containing 150 mM NaCl, 5 mM CaCl2, and 0.1% PEG 8000 (polyethylene glycol; JT Baker or Fisher Scientific). Determinations were made using purified human Factor XIa at a final concentration of 40 pM (Sekisui Diagnostics) and the synthetic substrate, Z-Gly-Pro-Arg-AFC, TFA salt (Sigma #C0980) at a concentration of 100 μM.
Chain of Coagulation factor XI (P03951 19-387 limits assumed): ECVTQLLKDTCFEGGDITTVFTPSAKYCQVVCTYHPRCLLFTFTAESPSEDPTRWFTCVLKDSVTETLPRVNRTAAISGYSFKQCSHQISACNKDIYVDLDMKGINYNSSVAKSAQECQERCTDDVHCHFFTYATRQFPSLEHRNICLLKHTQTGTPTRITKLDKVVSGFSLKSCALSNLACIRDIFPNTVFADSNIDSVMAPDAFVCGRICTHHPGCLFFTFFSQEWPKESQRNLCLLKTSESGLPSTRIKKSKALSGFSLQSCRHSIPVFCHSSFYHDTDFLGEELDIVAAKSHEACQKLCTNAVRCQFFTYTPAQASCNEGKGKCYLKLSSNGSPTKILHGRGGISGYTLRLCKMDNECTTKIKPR
Chain of Coagulation factor XI (P03951 388-625 limits assumed): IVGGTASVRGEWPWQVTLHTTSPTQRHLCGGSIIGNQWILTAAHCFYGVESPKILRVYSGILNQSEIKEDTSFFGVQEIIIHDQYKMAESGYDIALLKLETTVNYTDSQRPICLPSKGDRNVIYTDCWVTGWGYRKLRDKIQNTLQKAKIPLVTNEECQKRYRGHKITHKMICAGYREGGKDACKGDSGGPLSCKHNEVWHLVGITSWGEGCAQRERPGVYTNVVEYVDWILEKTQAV

[2] = molecular target: Plasma kallikrein (Homo sapiens, UniProt P03952); assay: Kallikrein Assay: The effectiveness of a compound of the present invention as an inhibitor of Kallikrein can be determined using a relevant purified serine protease, and an appropriate synthetic substrate. The rate of hydrolysis of the chromogenic or fluorogenic substrate by the relevant serine protease was measured both in the absence and presence of compounds of the present invention. Assays were conducted at room temperature or at 37° C. […] A decrease in the rate of fluorescence change in the presence of inhibitor is indicative of enzyme inhibition. Such methods are known to one skilled in the art. […] Times required to achieve equilibration between enzyme and inhibitor were determined in control experiments. The reactions were performed under linear progress curve conditions and fluorescence increase measured at 405 Ex/510 Em nm. […] IC50 was determined by inflection point from a four parameter logistic curve fit. Ki was calculated using the Cheng Prusoff equation, Ki=IC50/(1+([S]/Km)).
Chain of Plasma kallikrein (P03952 20-390 limits assumed): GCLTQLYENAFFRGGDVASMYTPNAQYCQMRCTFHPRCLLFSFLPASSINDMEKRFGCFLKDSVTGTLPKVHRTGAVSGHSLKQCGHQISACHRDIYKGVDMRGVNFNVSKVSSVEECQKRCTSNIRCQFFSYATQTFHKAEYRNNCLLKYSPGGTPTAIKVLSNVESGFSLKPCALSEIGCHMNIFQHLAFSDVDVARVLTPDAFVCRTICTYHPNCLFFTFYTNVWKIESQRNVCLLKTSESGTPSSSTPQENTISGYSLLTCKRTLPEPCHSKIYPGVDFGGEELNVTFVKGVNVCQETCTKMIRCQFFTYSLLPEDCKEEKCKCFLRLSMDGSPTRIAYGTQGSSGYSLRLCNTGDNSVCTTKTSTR
Chain of Plasma kallikrein (P03952 391-638 limits assumed): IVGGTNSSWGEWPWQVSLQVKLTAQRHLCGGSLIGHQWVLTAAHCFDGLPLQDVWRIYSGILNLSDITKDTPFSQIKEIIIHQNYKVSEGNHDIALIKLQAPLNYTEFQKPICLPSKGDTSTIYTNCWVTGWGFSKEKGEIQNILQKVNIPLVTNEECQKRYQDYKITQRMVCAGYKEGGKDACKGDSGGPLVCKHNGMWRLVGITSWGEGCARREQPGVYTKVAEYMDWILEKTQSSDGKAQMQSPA

IC50 [1]: 18.5 nM
Structure (SMILES): O=C(NC1CC=CC1)N1CCC(c2cccc([C@H](Cc3ccccc3)c3ccc(-c4cc(Cl)ccc4-n4cnnn4)c[n+]3[O-])c2)CC1
IC50 [2]: 696 nM
